From US20050203067A1, “Pesticidal compositions and methods” (priority 2003, published 2005)
Values after ≈ are worked out from the molar mass of the structure shown. Values joined by “and” are separate entries in the source; they are usually repeats but may differ in a detail not shown here. Identical values can stand only once. “Also recorded” adds a separate entry of the source. Like-named read-outs stand apart in the source and are kept apart here. One block for each compound: values may come before it.

Columns and labels:
[1] = test system: C. elegans (strain N2); assay: C. elegans contact assay (NGM-agar, 24-well); assay type: in vivo
[2] = test system: C. elegans; assay: Nematicidal activity of ethanolamine-like compounds on NGM plates (L4 P0, F1 phenotype); assay type: in vivo, Caenorhabditis elegans
[3] = test system: Cephalobus sp.; assay: Nematicidal activity against other nematodes (F1 phenotype); assay type: in vivo
[4] = test system: A. ellesmerensis; assay: as above; assay type: in vivo, Acrobiloides ellesmerensis
[5] = test system: C. elegans; assay: C. elegans liquid (well) assay; assay type: in vivo; conditions: Caenorhabditis elegans, read-out: Well EC50
[6] = test system: cucumber seedling; assay: Miniaturized greenhouse assay, phytotoxicity rating; conditions: for Ptox 40 (phytotoxicity rating): 40 ppm; for Ptox 200 (phytotoxicity rating): 200 ppm
[7] = test system: C. elegans; assay: C. elegans agar (plate) assay; assay type: in vivo; conditions: Caenorhabditis elegans, read-out: Plate EC50
[8] = test system: Meloidogyne incognita J2 larvae; assay: Miniaturized greenhouse assay on cucumber seedlings, root gall rating; assay type: in vivo; conditions: for Gall 40 (gall rating): 40 ppm; for Gall 200 (gall rating): 200 ppm
[9] = test system: C. elegans PEAMT1 RNAi-generated mutants; assay type: in vivo; conditions: for rescue of PEAMT1 mutants: 5 mM
[10] = test system: C. elegans PEAMT2 RNAi-generated mutants; conditions: in vivo
[11] = test system: P. falciparum; conditions: cited from earlier work
[12] = molecular target: P. falciparum PEAMT (Plasmodium falciparum, UniProt Q8IDQ9); conditions: cited from earlier work
Sequence of P. falciparum PEAMT (Q8IDQ9 whole entry): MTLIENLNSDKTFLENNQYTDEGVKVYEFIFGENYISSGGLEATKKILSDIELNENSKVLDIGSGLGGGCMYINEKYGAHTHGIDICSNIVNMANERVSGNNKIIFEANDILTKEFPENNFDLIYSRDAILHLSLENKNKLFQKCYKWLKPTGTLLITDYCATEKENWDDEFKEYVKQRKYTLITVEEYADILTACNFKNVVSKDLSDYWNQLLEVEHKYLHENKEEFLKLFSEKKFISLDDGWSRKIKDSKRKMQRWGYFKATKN

[13] = L4 P0 on NGM plates, 23° C., visual observation over several days
[14] = Caenorhabditis elegans, average number of adults in 4 replicate wells 96 hours after challenge, 20° C., read-out: EC50
[15] = rating scale 0-3 (% plant weight reduction)
[16] = 10 days after inoculation, rating scale 0-3 (% root mass galled)

Compound: 2-[(4-phenylazo)phenylanilino]ethanesulfonamide [Compound 3770]
EC50 ([1]; average number of adults in 4 replicate wells 96 hours after challenge, 20° C., read-out: EC50): 20 µM

Compound: NCC(O)c1ccccc1 (stereo not drawn) [2-amino-1-phenylethanol]
F1 PHENOTYPE ([2]; C. elegans, 25 mM): Wild-type development
nematicidal activity against C. elegans [2, 13]: no nematicidal effect

Compound: OCCNCc1ccccc1 [Compound 3702, 2-Benzylaminoethanol]
EC50 [1, 14]: 3400 µM

Compound: CC(C)(C)NCCO [Compound 3703, 2-(tert-Butylamino)ethanol]
EC50 [1, 14]: 4100 µM
F1 PHENOTYPE ([3]; Cephalobus sp., 10 mM): L1/L2 arrest/lethality
F1 PHENOTYPE ([4]; A. ellesmerensis, 10 mM): L1/L2 arrest/lethality
F1 PHENOTYPE ([2]; C. elegans, 10 mM): L1/L2 arrest/lethality
nematicidal activity against C. elegans [2, 13]: showed nematicidal activity

Compound: N[C@@H](CO)Cc1ccccc1 [Compound 3704, D-Phenylalaninol]
EC50 ([1]; Caenorhabditis elegans, 96 h): 2500 µM
F1 PHENOTYPE ([3]; in vivo): L1/L2 arrest/lethality
F1 PHENOTYPE ([4]; in vivo): L1/L2 arrest/lethality
F1 PHENOTYPE ([2]; in vivo): L1/L2 arrest/lethality
nematicidal activity against C. elegans ([2]; in vivo): showed nematicidal activity

Compound: OCCNc1ccccc1 [Compound 3733, N-(2-Hydroxyethyl)aniline]
EC50 [1, 14]: 4200 µM
F1 PHENOTYPE ([2]; C. elegans, 10 mM): L1/L2 arrest/lethality
nematicidal activity against C. elegans [2, 13]: showed nematicidal activity

Compound: COc1ccc(NCCS(=O)(=O)F)cc1 [Compound 3736, 2-4-methoxy-phenylaminoethanesulfonyl fluoride]
EC50 ([1]; in vivo, read-out: EC50): 500 µM

Compound: O=S(=O)(F)CCNc1ccc(Cl)cc1 [Compound 3738, 2-4-chlorophenylaminoethanesulfonyl fluoride]
EC50 ([1]; in vivo, read-out: EC50): 82 µM

Compound: O=C1CCC(=O)N1CCS(=O)(=O)F [Compound 3743, 2,5-Dioxo-1-pyrrolidineethanesulfonyl fluoride]
EC50 ([1]; in vivo, read-out: EC50): 1300 µM

Compound: O=S(=O)(F)CCn1nnc2ccccc21 [Compound 3745, 2-Benzotriazol-1-yl-ethanesulfonylfluoride]
EC50 ([1]; in vivo, read-out: EC50): 1700 µM and 1340 µM

Compound: O=S(=O)(F)CCn1cnc2ccccc21 [Compound 3747, 2-Benzoimidazol-1-yl-ethanesulfonyl fluoride]
EC50 ([1]; in vivo, read-out: EC50): 1400 µM

Compound: O=S(=O)(F)CCNc1ccccc1 [Compound 3754, 2-phenylaminoethanesulfonyl fluoride]
EC50 ([1]; in vivo, read-out: EC50): 940 µM and 570 µM

Compound: CCN(C)c1ccc(/N=N/c2ccccc2)cc1 [Compound 3761, 4-N-ethyl-N-methylaminoazobenzene]
EC50 ([5]; liquid (well) assay, 20° C.): 6.3 to 12.5 µg/mL (≈ 26.3 to 52.2 µM)
EC50 [1, 14]: 7 µM
Ptox 40 (phytotoxicity rating) [6, 15]: 0.00
Ptox 200 (phytotoxicity rating) [6, 15]: 1.00
EC50 ([7]; agar (plate) assay, 20° C.): 0.8 µg/mL (≈ 3.34 µM)
Gall 40 (gall rating) [8, 16]: 0.67
Gall 200 (gall rating) [8, 16]: 0.00

Compound: CCNc1ccccc1 [Compound 3766, N-ethylaniline]
EC50 [1, 14]: 360 µM

Compound: CN(C)c1ccc(/N=N/c2ccc(NCCS(=O)(=O)F)cc2)cc1 [Compound 3767, 2-[4-(4-dimethylamino-phenylazo)-phenylamino]-ethanesulfonyl fluoride]
EC50 ([1]; Caenorhabditis elegans, 96 h): 7 µM

Compound: CN(C)c1ccc(/N=N/c2ccccc2)cc1 [DC3783, Dimethyl-(4-phenylazo-phenyl)-amine]
EC50 [5]: 0.4 to 0.78 µg/mL (≈ 1.78 to 3.46 µM)
EC50 [7]: 1.6 µg/mL (≈ 7.1 µM)

Compound: CNc1ccc(N=Nc2ccccc2)cc1 [DC3845, Methyl-(4-phenylazo-phenyl)-amine]
EC50 [5]: 0.4 to 0.8 µg/mL (≈ 1.89 to 3.79 µM)
Ptox 40 (phytotoxicity rating) [6]: 1.00
Ptox 200 (phytotoxicity rating) [6]: 3.00
EC50 [7]: 0.4 µg/mL (≈ 1.89 µM)
Gall 40 (gall rating) [8]: 0.33
Gall 200 (gall rating) [8]: 0.00

Compound: CN(C)CCO [DME, dimethylethanolamine]
rescue of PEAMT1 mutants [9]: rescued
F1 phenotype PEAMT1 dsRNA ([9]; in vivo): Fertile adults
rescue of the sterility associated with PEAMT1 RNAi ([9]; in vivo): rescues the sterility
F1 phenotype PEAMT2 dsRNA [10]: Sterility; also recorded: L1/L2 arrest/lethality

Compound: NCCO [EA, ethanolamine]
F1 phenotype PEAMT1 dsRNA ([9]; in vivo): L1/L2 arrest/lethality
F1 phenotype PEAMT2 dsRNA [10]: L1/L2 arrest/lethality

Compound: CNCCO [MME, monomethylethanolamine]
rescue of PEAMT1 mutants [9]: rescued
F1 phenotype PEAMT1 dsRNA ([9]; in vivo): Fertile adults
F1 phenotype PEAMT2 dsRNA [10]: L1/L2 arrest/lethality

Compound: CCCCCCCCCCCCCCCCOP(=O)([O-])OCC[N+](C)(C)C [miltefosine]
parasite proliferation within human erythrocytes [11]: inhibits parasite proliferation
inhibition of the plasmodium PEAMT enzyme [12]: inhibited

The next lines start with results.

EC50 ([5]; liquid (well) assay, 20° C.): 6.3 to 12.5 µg/mL (≈ 26.3 to 52.2 µM)
EC50 ([7]; agar (plate) assay, 20° C.): > 100 µg/mL
Compound: Cc1ccc(/N=N/c2ccc(N(C)C)cc2)cc1 [DC3785, Dimethyl-(4-p-tolylazo-phenyl)-amine]

EC50 ([5]; liquid (well) assay, 20° C.): 0.4 to 0.78 µg/mL (≈ 1.67 to 3.26 µM)
EC50 ([7]; agar (plate) assay, 20° C.): 1.6 µg/mL (≈ 6.69 µM)
Compound: Cc1cc(N(C)C)ccc1/N=N/c1ccccc1 [DC3787, Dimethyl-(3-methyl-4-phenylazo-phenyl)-amine]

EC50 ([5]; liquid (well) assay, 20° C.): 25 to 50 µg/mL (≈ 110 to 221 µM)
EC50 ([7]; agar (plate) assay, 20° C.): 12.5 to 25 µg/mL (≈ 55.2 to 110 µM)
Compound: CN(C)c1ccc(/N=N/c2ccccn2)cc1 [DC3791, Dimethyl-[4-(pyridin-2-ylazo)-phenyl]-amine]

EC50 ([5]; liquid (well) assay, 20° C.): 3.2 to 6.3 µg/mL (≈ 11.5 to 22.7 µM)
EC50 ([7]; agar (plate) assay, 20° C.): > 100 µg/mL
Compound: O=C1C=CC(=O)N1c1ccc(/N=N/c2ccccc2)cc1 [DC3792, 1-(4-Phenylazo-phenyl)-pyrrole-2,5-dione]

EC50 ([5]; liquid (well) assay, 20° C.): 3.2 to 6.3 µg/mL (≈ 11.7 to 23 µM)
EC50 ([7]; agar (plate) assay, 20° C.): 6.3 µg/mL (≈ 23 µM)
Compound: CC(=O)Nc1ccc(/N=N/c2ccccc2)cc1Cl [DC3796, N-(2-Chloro-4-phenylazo-phenyl)-acetamide]

EC50 ([5]; liquid (well) assay, 20° C.): 0.2 to 0.4 µg/mL (≈ 0.657 to 1.31 µM)
EC50 ([7]; agar (plate) assay, 20° C.): 0.4 µg/mL (≈ 1.31 µM)
Compound: CCNc1ccc(/N=N/c2ccc(Br)cc2)cc1 [DC3800, [4-(4-Bromo-phenylazo)-phenyl]-ethyl-amine]
Ptox 40 (phytotoxicity rating) [6, 15]: 0.00
Ptox 200 (phytotoxicity rating) [6, 15]: 2.67
Gall 40 (gall rating) [8, 16]: 1.33
Gall 200 (gall rating) [8, 16]: 0.00

EC50 ([5]; liquid (well) assay, 20° C.): 0.2 to 0.4 µg/mL (≈ 0.836 to 1.67 µM)
EC50 ([7]; agar (plate) assay, 20° C.): 0.4 µg/mL (≈ 1.67 µM)
Compound: CCNc1ccc(/N=N/c2ccc(C)cc2)cc1 [DC3801, Ethyl-(4-p-tolylazo-phenyl)-amine]
Ptox 40 (phytotoxicity rating) [6, 15]: 1.67
Ptox 200 (phytotoxicity rating) [6, 15]: 3.00
Gall 40 (gall rating) [8, 16]: 1.33
Gall 200 (gall rating) [8, 16]: 0.00

EC50 ([5]; liquid (well) assay, 20° C.): 0.4 to 0.8 µg/mL (≈ 1.21 to 2.42 µM)
EC50 ([7]; agar (plate) assay, 20° C.): 0.8 µg/mL (≈ 2.42 µM)
Compound: CN1CCCc2cc(/N=N/c3ccc(Br)cc3)ccc21 [DC3819, (4-Bromo-phenyl)-(1-methyl-1,2,3,4-tetrahydro-quinolin-6-yl)-diazene]

EC50 ([5]; liquid (well) assay, 20° C.): 0.8 to 1.6 µg/mL (≈ 2.84 to 5.69 µM)
EC50 ([7]; agar (plate) assay, 20° C.): 1.6 µg/mL (≈ 5.69 µM)
Compound: COc1ccc(/N=N/c2ccc3c(c2)CCCN3C)cc1 [DC3821, (4-Methoxy-phenyl)-(1-methyl-1,2,3,4-tetrahydro-quinolin-6-yl)-diazene]

EC50 ([5]; liquid (well) assay, 20° C.): 6.2 to 12.5 µg/mL (≈ 25.6 to 51.6 µM)
EC50 ([7]; agar (plate) assay, 20° C.): 3.2 µg/mL (≈ 13.2 µM)
Compound: CN(C)c1ccc(/N=N/c2ccccn2)c(O)c1 [DC3829, 5-Dimethylamino-2-(pyridin-2-ylazo)-phenol]

EC50 ([5]; liquid (well) assay, 20° C.): 1.5 to 3.1 µg/mL (≈ 6.27 to 13 µM)
EC50 ([7]; agar (plate) assay, 20° C.): 1.6 µg/mL (≈ 6.69 µM)
Compound: Cc1ccccc1/N=N/c1ccc(N(C)C)cc1 [DC3832, Dimethyl-(4-o-tolylazo-phenyl)-amine]

EC50 ([5]; liquid (well) assay, 20° C.): 12.5 to 25 µg/mL (≈ 34.9 to 69.8 µM)
EC50 ([7]; agar (plate) assay, 20° C.): 6.2 µg/mL (≈ 17.3 µM)
Compound: O=C1CSC(=S)N1c1ccc(/N=N/c2ccc([N+](=O)[O-])cc2)cc1 [DC3833, 3-[4-(4-Nitro-phenylazo)-phenyl]-2-thioxo-thiazolidin-4-one]

EC50 ([5]; liquid (well) assay, 20° C.): 3.1 to 6.2 µg/mL (≈ 12.7 to 25.5 µM)
EC50 ([7]; agar (plate) assay, 20° C.): 6.25 µg/mL (≈ 25.7 µM)
Compound: O=[N+]([O-])c1ccc(/N=N/c2ccc(O)cc2)cc1 [DC3844, 4-(4-Nitro-phenylazo)-phenol]

EC50 ([5]; liquid (well) assay, 20° C.): 0.4 µg/mL (≈ 1.54 µM)
EC50 ([7]; agar (plate) assay, 20° C.): 0.4 µg/mL (≈ 1.54 µM)
Compound: CN(C)c1ccc(/N=N/c2cccc(Cl)c2)cc1 [DC3853, [4-(3-Chloro-phenylazo)-phenyl]-dimethyl-amine]

EC50 ([5]; liquid (well) assay, 20° C.): 12 µg/mL (≈ 53.3 µM)
Compound: CN(C)c1ccc(C(=O)c2ccccc2)cc1 [DC3890, (4-Dimethylamino-phenyl)-phenyl-methanone]

EC50 ([5]; liquid (well) assay, 20° C.): 1.6 µg/mL (≈ 7.04 µM)
Compound: O=[N+]([O-])c1ccc(N=Nc2ccccc2)cc1 [DC3898, (4-Nitro-phenyl)-phenyl-diazene]

EC50 ([5]; liquid (well) assay, 20° C.): 12.5 µg/mL (≈ 49.7 µM)
Compound: CN(C)c1ccc(/C=C/C(=O)c2ccccc2)cc1 [DC3901, 3-(4-Dimethylamino-phenyl)-1-phenyl-propenone]
